# Laboratory results reported in US11117900B2 (Vertex Pharmaceuticals Incorporated, priority 2012, dated 2021).
# Test system: HCT116 colorectal cancer cells
# Assay: Cisplatin sensitization assay (96 h MTS cell viability);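 note: compound concentration needed to lower the IC50 of Cisplatin alone by a set fold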
# Type: cell-based
# Details: Cisplatin sensitization value
# Summary of the method: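 The MTS viability read, after 1 h with reagent, followed 96 h of co-treatment at 37° C. in 5% CO2. Both compound and cisplatin were titrated 2-fold from a 10 μM top final concentration in a complete concentration matrix on HCT116 cells. Scores +++/++/+ reflect cisplatin sensitization value ranges.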
row,Structure (SMILES),Cisplatin Sensitization Assay
1,"Nc1nn2cc(F)cnc2c1C(=O)Nc1cnccc1N1CCCCC1 [I-N-152, 2-amino-6-fluoro-N-(4-(piperidin-1-yl)pyridin-3-yl)pyrazolo[1,5-a]pyrimidine-3-carboxamide]",+++ (Compounds with a Cisplatin sensitization value of <0.02 μM are marked with “+++.”)
2,"Nc1nn2cc(Cl)cnc2c1C(=O)Nc1cnccc1OC1CNC1 [I-O-73, 2-amino-N-(4-(azetidin-3-yloxy)pyridin-3-yl)-6-chloropyrazolo[1,5-a]pyrimidine-3-carboxamide]",+ (Compounds with a Cisplatin sensitization value >0.2 μM but <5 μM are marked with “+.”)
3,"CN(C)C1CN(C(=O)C2CCN(c3c(F)cncc3NC(=O)c3c(N)nn4cc(F)cnc34)CC2)C1 [I-G-22, 2-amino-N-(4-(4-(3-(dimethylamino)azetidine-1-carbonyl)piperidin-1-yl)-5-fluoropyridin-3-yl)-6-fluoropyrazolo[1,5-a]pyrimidine-3-carboxamide]",+++ (Compounds with a Cisplatin sensitization value of <0.02 μM are marked with “+++.”)
4,"COC1CCN(c2ccncc2NC(=O)c2c(N)nn3cc(Cl)cnc23)CC1 [I-N-73, 2-amino-6-chloro-N-(4-(4-methoxypiperidin-1-yl)pyridin-3-yl)pyrazolo[1,5-a]pyrimidine-3-carboxamide]",+++ (Compounds with a Cisplatin sensitization value of <0.02 μM are marked with “+++.”)
5,"CN1CCN(C(=O)C2CCN(c3c(Cl)cncc3NC(=O)c3c(N)nn4cc(F)cnc34)CC2)CC1 [I-G-3, 2-amino-N-(5-chloro-4-(4-(4-methylpiperazine-1-carbonyl)piperidin-1-yl)pyridin-3-yl)-6-fluoropyrazolo[1,5-a]pyrimidine-3-carboxamide]",+++ (Compounds with a Cisplatin sensitization value of <0.02 μM are marked with “+++.”)
6,"Nc1nn2cc(F)cnc2c1C(=O)Nc1cnccc1N1CCN2CCC1CC2 [I-N-18, N-(4-(1,4-diazabicyclo[3.2.2]nonan-4-yl)pyridin-3-yl)-2-amino-6-fluoropyrazolo[1,5-a]pyrimidine-3-carboxamide]",++ (Compounds with a Cisplatin sensitization value >0.02 μM but <0.2 μM are marked with “++.”)
7,"COCC1CN(C(=O)C2CCN(c3c(F)cncc3NC(=O)c3c(N)nn4cc(F)cnc34)CC2)C1 [I-G-98, 2-amino-6-fluoro-N-(5-fluoro-4-(4-(3-(methoxymethyl)azetidine-1-carbonyl)piperidin-1-yl)pyridin-3-yl)pyrazolo[1,5-a]pyrimidine-3-carboxamide]",+++ (Compounds with a Cisplatin sensitization value of <0.02 μM are marked with “+++.”)
8,"Nc1nn2cc(F)cnc2c1C(=O)Nc1cnccc1C1CCN(C2COC2)CC1 [I-C-10, 2-amino-6-fluoro-N-(4-(1-(oxetan-3-yl)piperidin-4-yl)pyridin-3-yl)pyrazolo[1,5-a]pyrimidine-3-carboxamide]",+++ (Compounds with a Cisplatin sensitization value of <0.02 μM are marked with “+++.”)
9,"Nc1nn2cc(Cl)cnc2c1C(=O)Nc1cnccc1OCC(F)(F)F [I-O-59, 2-amino-6-chloro-N-(4-(2,2,2-trifluoroethoxy)pyridin-3-yl)pyrazolo[1,5-a]pyrimidine-3-carboxamide]",+++ (Compounds with a Cisplatin sensitization value of <0.02 μM are marked with “+++.”)
10,"CC(=O)N1CCC2(CCN(c3ccncc3NC(=O)c3c(N)nn4cc(F)cnc34)CC2)C1 [I-N-257, N-(4-(2-acetyl-2,8-diazaspiro[4.5]decan-8-yl)pyridin-3-yl)-2-amino-6-fluoropyrazolo[1,5-a]pyrimidine-3-carboxamide]",+++ (Compounds with a Cisplatin sensitization value of <0.02 μM are marked with “+++.”)
11,"CN(C)Cc1ccc(Oc2ccncc2NC(=O)c2c(N)nn3cc(F)cnc23)cn1 [I-O-3, 2-amino-N-(4-((6-((dimethylamino)methyl)pyridin-3-yl)oxy)pyridin-3-yl)-6-fluoropyrazolo[1,5-a]pyrimidine-3-carboxamide]",++ (Compounds with a Cisplatin sensitization value >0.02 μM but <0.2 μM are marked with “++.”)
12,"Nc1nn2cc(F)cnc2c1C(=O)Nc1cnccc1N1CCC(C(=O)N2CCC3(COC3)C2)CC1 [I-G-84, N-(4-(4-(2-oxa-6-azaspiro[3.4]octane-6-carbonyl)piperidin-1-yl)pyridin-3-yl)-2-amino-6-fluoropyrazolo[1,5-a]pyrimidine-3-carboxamide]",+++ (Compounds with a Cisplatin sensitization value of <0.02 μM are marked with “+++.”)
13,"Nc1nn2cc(F)cnc2c1C(=O)Nc1cnccc1N1CCN2C(=O)OCC2C1 (stereo not drawn) [I-N-238, 2-amino-6-fluoro-N-(4-(3-oxotetrahydro-1H-oxazolo[3,4-a]pyrazin-7(3H)-yl)pyridin-3-yl)pyrazolo[1,5-a]pyrimidine-3-carboxamide]",++ (Compounds with a Cisplatin sensitization value >0.02 μM but <0.2 μM are marked with “++.”)
14,"CN1CCCCC1C(=O)N1CCN(c2c(F)cncc2NC(=O)c2c(N)nn3cc(F)cnc23)CC1 (stereo not drawn) [I-N-214, 2-amino-6-fluoro-N-(5-fluoro-4-(4-(1-methylpiperidine-2-carbonyl)piperazin-1-yl)pyridin-3-yl)pyrazolo[1,5-a]pyrimidine-3-carboxamide]",++ (Compounds with a Cisplatin sensitization value >0.02 μM but <0.2 μM are marked with “++.”)
15,"CN1CCN(c2ccncc2NC(=O)c2c(N)nn3cc(F)cnc23)CC1 [I-N-3, 2-amino-6-fluoro-N-(4-(4-methylpiperazin-1-yl)pyridin-3-yl)pyrazolo[1,5-a]pyrimidine-3-carboxamide]",+++ (Compounds with a Cisplatin sensitization value of <0.02 μM are marked with “+++.”)
16,"COc1ccncc1NC(=O)c1c(N)nn2cc(F)cnc12 [I-O-4, 2-amino-6-fluoro-N-(4-methoxypyridin-3-yl)pyrazolo[1,5-a]pyrimidine-3-carboxamide]",++ (Compounds with a Cisplatin sensitization value >0.02 μM but <0.2 μM are marked with “++.”)
17,"CCN1CCN(c2ccncc2NC(=O)c2c(N)nn3cc(F)cnc23)CC1 [I-N-17, 2-amino-N-(4-(4-ethylpiperazin-1-yl)pyridin-3-yl)-6-fluoropyrazolo[1,5-a]pyrimidine-3-carboxamide]",+++ (Compounds with a Cisplatin sensitization value of <0.02 μM are marked with “+++.”)
18,"CS(=O)(=O)CC1CCN(c2ccncc2NC(=O)c2c(N)nn3cc(F)cnc23)CC1 [I-N-215, 2-amino-6-fluoro-N-(4-(4-((methylsulfonyl)methyl)piperidin-1-yl)pyridin-3-yl)pyrazolo[1,5-a]pyrimidine-3-carboxamide]",+++ (Compounds with a Cisplatin sensitization value of <0.02 μM are marked with “+++.”)
19,"CC(C)N1CCN(c2ccncc2NC(=O)c2c(N)nn3cc(F)cnc23)CC1 [I-N-4, 2-amino-6-fluoro-N-(4-(4-isopropylpiperazin-1-yl)pyridin-3-yl)pyrazolo[1,5-a]pyrimidine-3-carboxamide]",+++ (Compounds with a Cisplatin sensitization value of <0.02 μM are marked with “+++.”)
20,"Nc1nn2cc(F)cnc2c1C(=O)Nc1cncc(F)c1N1CCC(C(=O)N2CC(F)C2)CC1 [I-G-74, 2-amino-6-fluoro-N-(5-fluoro-4-(4-(3-fluoroazetidine-1-carbonyl)piperidin-1-yl)pyridin-3-yl)pyrazolo[1,5-a]pyrimidine-3-carboxamide]",+++ (Compounds with a Cisplatin sensitization value of <0.02 μM are marked with “+++.”)
21,"COC1(CN(C)C)CCN(c2ccncc2NC(=O)c2c(N)nn3cc(Cl)cnc23)CC1 [I-N-46, 2-amino-6-chloro-N-(4-(4-((dimethylamino)methyl)-4-methoxypiperidin-1-yl)pyridin-3-yl)pyrazolo[1,5-a]pyrimidine-3-carboxamide]",+++ (Compounds with a Cisplatin sensitization value of <0.02 μM are marked with “+++.”)
22,"CN1CCN(CC2CCN(c3c(F)cncc3NC(=O)c3c(N)nn4cc(F)cnc34)CC2)CC1 [I-N-150, 2-amino-6-fluoro-N-(5-fluoro-4-(4-((4-methylpiperazin-1-yl)methyl)piperidin-1-yl)pyridin-3-yl)pyrazolo[1,5-a]pyrimidine-3-carboxamide]",+++ (Compounds with a Cisplatin sensitization value of <0.02 μM are marked with “+++.”)
23,"Nc1nn2cc(Cl)cnc2c1C(=O)Nc1cnccc1-n1ccnc1 [I-N-29, N-(4-(1H-imidazol-1-yl)pyridin-3-yl)-2-amino-6-chloropyrazolo[1,5-a]pyrimidine-3-carboxamide]",++ (Compounds with a Cisplatin sensitization value >0.02 μM but <0.2 μM are marked with “++.”)
24,"Nc1nn2cc(Cl)cnc2c1C(=O)Nc1cnccc1N1CCC(N2CCOCC2)CC1 [I-N-104, 2-amino-6-chloro-N-(4-(4-morpholinopiperidin-1-yl)pyridin-3-yl)pyrazolo[1,5-a]pyrimidine-3-carboxamide]",+++ (Compounds with a Cisplatin sensitization value of <0.02 μM are marked with “+++.”)
25,"Nc1nn2cc(Cl)cnc2c1C(=O)Nc1cnccc1N1CCn2cncc2C1 [I-N-75, 2-amino-6-chloro-N-(4-(5,6-dihydroimidazo[1,5-a]pyrazin-7(8H)-yl)pyridin-3-yl)pyrazolo[1,5-a]pyrimidine-3-carboxamide]",+++ (Compounds with a Cisplatin sensitization value of <0.02 μM are marked with “+++.”)
26,"Nc1nn2cc(F)cnc2c1C(=O)Nc1cnccc1N1CCCCCC1 [I-N-264, 2-amino-N-(4-(azepan-1-yl)pyridin-3-yl)-6-fluoropyrazolo[1,5-a]pyrimidine-3-carboxamide]",+ (Compounds with a Cisplatin sensitization value >0.2 μM but <5 μM are marked with “+.”)
27,"CC1(O)CCN(c2ccncc2NC(=O)c2c(N)nn3cc(Cl)cnc23)CC1 [I-N-66, 2-amino-6-chloro-N-(4-(4-hydroxy-4-methylpiperidin-1-yl)pyridin-3-yl)pyrazolo[1,5-a]pyrimidine-3-carboxamide]",+++ (Compounds with a Cisplatin sensitization value of <0.02 μM are marked with “+++.”)
